The test system of assay [1] is translocater protein (TSPO). Also noted: method as in PMID 20705143. The conditions noted are these: ipsilateral side of an ischemic rat brain; cited from earlier work.
A further assay addresses mGluR1 (Rattus norvegicus, UniProt P23385). Put plainly: In vitro binding assay with [^18F]FITM using cerebellum homogenate. Also on record: from tissue; host or cells: cerebellum homogenate. The following applies: previous unpublished data, S4 Fig.

These results are taken from PMC4468202, “Improved Visualization and Specific Binding for Metabotropic Glutamate Receptor Subtype 1 (mGluR1) Using [^11C]ITMM with Ultra-High Specific Activity in Small-Animal PET” (PLoS ONE, 2015).

mGluR1, sequence (P23385 19-1199): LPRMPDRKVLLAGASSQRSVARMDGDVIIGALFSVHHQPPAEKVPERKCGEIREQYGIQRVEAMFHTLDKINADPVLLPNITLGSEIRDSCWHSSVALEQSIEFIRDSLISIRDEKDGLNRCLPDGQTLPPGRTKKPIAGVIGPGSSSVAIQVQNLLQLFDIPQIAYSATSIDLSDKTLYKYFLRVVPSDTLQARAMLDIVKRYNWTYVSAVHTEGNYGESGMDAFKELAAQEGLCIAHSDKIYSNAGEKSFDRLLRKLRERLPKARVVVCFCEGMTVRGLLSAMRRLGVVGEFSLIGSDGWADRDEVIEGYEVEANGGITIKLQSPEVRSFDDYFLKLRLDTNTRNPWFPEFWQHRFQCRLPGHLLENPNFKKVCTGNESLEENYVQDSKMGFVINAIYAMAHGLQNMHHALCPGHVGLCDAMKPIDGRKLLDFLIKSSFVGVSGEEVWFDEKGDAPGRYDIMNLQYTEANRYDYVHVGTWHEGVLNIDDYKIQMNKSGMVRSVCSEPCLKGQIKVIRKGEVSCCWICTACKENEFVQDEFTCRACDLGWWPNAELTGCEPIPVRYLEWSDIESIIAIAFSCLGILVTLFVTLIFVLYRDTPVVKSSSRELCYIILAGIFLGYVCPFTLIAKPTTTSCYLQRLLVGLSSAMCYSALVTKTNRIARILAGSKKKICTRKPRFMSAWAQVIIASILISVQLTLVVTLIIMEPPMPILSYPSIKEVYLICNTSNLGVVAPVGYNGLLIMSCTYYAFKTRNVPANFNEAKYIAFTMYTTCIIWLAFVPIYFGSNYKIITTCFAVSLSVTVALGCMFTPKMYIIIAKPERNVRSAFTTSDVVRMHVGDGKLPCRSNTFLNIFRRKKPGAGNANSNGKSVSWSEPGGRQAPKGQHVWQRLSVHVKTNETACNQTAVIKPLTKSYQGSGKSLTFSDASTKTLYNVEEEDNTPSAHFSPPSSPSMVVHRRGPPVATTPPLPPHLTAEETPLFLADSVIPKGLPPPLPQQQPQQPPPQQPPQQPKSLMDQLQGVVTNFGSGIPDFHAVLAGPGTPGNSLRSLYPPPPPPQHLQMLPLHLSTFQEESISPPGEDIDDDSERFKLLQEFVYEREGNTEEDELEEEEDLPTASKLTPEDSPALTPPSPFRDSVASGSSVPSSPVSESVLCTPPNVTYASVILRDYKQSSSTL

On to `Cn1c(=O)n(CC(=O)N([11CH3])Cc2ccccc2)c2nc(-c3ccccc3)ncc21` [[^11C]DAC], for which the “binding potential, ultra-high SA vs conventional SA” value in assay [1] was “roughly two times higher”.

As for `CC(C)Nc1cc(-c2csc(N(C)C(=O)c3ccc([18F])cc3)n2)ncn1` [[^18F]FITM, 4-[18F]fluoro-N-[4-[6-(isopropylamino)pyrimidin-4-yl]-1,3-thiazol-2-yl]-N-methylbenzamide], the binding sites result on mGluR1 was “two binding sites of [^18F]FITM possessing high and low affinities”.
